Data from patent US9649313B2, “Use of ITK inhibitors for the treatment of cancer” (The University of North Carolina at Chapel Hill, priority 2012, dated 2017).

Key:
Type in all cases: cell-based, Human
[1] = system: SKMEL 153 (ITKHI) melanoma cell line; assay: proliferation assay (cell counts); settings: 50 nM
Protocol: (§1) FIG. 5A-5C. Effects of BI 10N inhibitor on proliferation and motility of melanoma cells. FIG. 5A) Cell motility assays were performed as described in FIG. 4A-4E; however, the inhibitor BI 10N was added to the media to decrease ITK kinase activity in parental cell lines instead of using the shRNA ITK knockdown cell lines. BI 10N was added to the media 24 hours prior to the start of the motility assay and the VivaView camera system was used to image cellular motility of the melanoma cells as described previously. FIG. 5B) The proliferation assays were completed as described in FIG. 4A-4E, substituting the BI 10N compound for the shRNA. Cells were trypsinized and counted using the Invitrogen Countess. Fifty thousand cells were placed into each well of a 6 well plate and BI 10N was added to the indicated concentrations. The cells were counted with the Invitrogen Countess at 3, 5, and 6 or 7 days after plating to assess the proliferation rates of the different cell lines in the presence of BI 10N. FIG. 5C) Both ITKHI (RPMI 8322) and ITKLO (PMWK) melanoma cell lines were grown in the presence of BI 10N (10-200 nM) in soft agar. In 24-well cell culture plates 2,500 cells per well were added to a 1.4% agarose solution. The agarose and cell solution was then poured on top of a solidified base agar. The cells were incubated at 37° C. for three to four weeks to ensure adequate growth before analysis. FIG. 5D) Cell cycle analysis of PMWK, VMM 39, and RPMI 8322 cells that have been treated with increasing concentrations of BI 10N. Following 3 days of BI 10N treatment, the cells were incubated with EdU for 3 hours and were subsequently assessed for 5-ethynyl-2′-deoxyuridine (EdU) incorporation rate and DNA content with FxCycle Violet. […]
(§2) Human melanoma cell lines were plated onto 10 cm^2 6 well dishes at a density of 50,000 cells per well. […] Five hundred […] of media was added to the cell suspension, the cells were removed from the well and then counted using the Countess® Automated Cell Counter from Life Technologies (cat #C10227). […]

[2] = system: SKMEL 131 (ITKLO) melanoma cell line; assay: proliferation assay (cell counts); settings: inhibitor as high as 150 nM
Protocol: as §1, §2

[3] = system: A375 (ITKINT) melanoma cell line; assay: proliferation assay (cell counts); settings: 50 nM
Protocol: as §1, §2

PMWK (ITKLO) cells = assay: cell cycle analysis (EdU, FxCycle Violet); settings: 3 days of treatment
Protocol: (§3) FIG. 5A-5C. Effects of BI 10N inhibitor on proliferation and motility of melanoma cells. FIG. 5A) Cell motility assays were performed as described in FIG. 4A-4E; however, the inhibitor BI 10N was added to the media to decrease ITK kinase activity in parental cell lines instead of using the shRNA ITK knockdown cell lines. BI 10N was added to the media 24 hours prior to the start of the motility assay and the VivaView camera system was used to image cellular motility of the melanoma cells as described previously. FIG. 5B) The proliferation assays were completed as described in FIG. 4A-4E, substituting the BI 10N compound for the shRNA. Cells were trypsinized and counted using the Invitrogen Countess. Fifty thousand cells were placed into each well of a 6 well plate and BI 10N was added to the indicated concentrations. The cells were counted with the Invitrogen Countess at 3, 5, and 6 or 7 days after plating to assess the proliferation rates of the different cell lines in the presence of BI 10N. FIG. 5C) Both ITKHI (RPMI 8322) and ITKLO (PMWK) melanoma cell lines were grown in the presence of BI 10N (10-200 nM) in soft agar. In 24-well cell culture plates 2,500 cells per well were added to a 1.4% agarose solution. The agarose and cell solution was then poured on top of a solidified base agar. The cells were incubated at 37° C. for three to four weeks to ensure adequate growth before analysis. FIG. 5D) Cell cycle analysis of PMWK, VMM 39, and RPMI 8322 cells that have been treated with increasing concentrations of BI 10N. Following 3 days of BI 10N treatment, the cells were incubated with EdU for 3 hours and were subsequently assessed for 5-ethynyl-2′-deoxyuridine (EdU) incorporation rate and DNA content with FxCycle Violet. Shown in this panel are the percentages of cells in G0/G1 (low DNA and EdU content), S (high EdU and low-to-medium DNA content), and G2/M (Low EdU and high DNA content)
(§4) Melanoma cells were grown to approximately 60% confluence in T25 tissue culture flasks (Corning Product #430639). […]

VMM 39 (ITKHI) cells = assay: cell cycle analysis (EdU, FxCycle Violet); settings: 3 days of treatment, dose-dependent
Protocol: as §3, §4

RPMI 8322 (ITKHI) cells = assay: cell cycle analysis (EdU, FxCycle Violet); settings: 3 days of treatment, dose-dependent
Protocol: as §3, §4

[4] = system: SKMEL 153 (ITKHI) melanoma cell line; assay: single cell motility assay; settings: 10-25 nM
Protocol: as §3
(§5) Single cell tracking was performed as described (Williams et al., 2012 Circ Res 111(1):56-65). Briefly melanoma cells were plated on 5 μg/cm2 collagen coated MatTek dishes (MatTek Corp., Ashland, Mass. part #P35G-1.5-10-C) and allowed to attach for 24 hours in the presence of either DMSO (1:1000) or BI 10N in DMSO. Cells were monitored for 16 hours using the Olympus VivaView live cell imaging microscope system. Images were taken at a magnification of 10× and were converted to stacks using Image J software. Single-cells were tracked using Image J manual tracking software and velocities were obtained.

[5] = system: SKMEL 131 (ITKLO) melanoma cell line; assay: single cell motility assay
Protocol: as §3, §5

[6] = system: SKMEL 103 (ITKINT) melanoma cell line; assay: single cell motility assay
Protocol: as §3, §5

[7] = system: A375 (ITKINT) melanoma cell line; assay: single cell motility assay
Protocol: as §3, §5

CC(C)C(C)CNCc1ccc2c(c1)[nH]/c(=N\C(=O)c1ccc(C3=CN=NC3)s1)n2CC(C)(C)O (stereo not shown) [BI 10N]
increase in doubling time [1]: about 50%
effect on doubling time [2]: did not increase their doubling time
effect on proliferation [3]: decreased similarly to the ITKHI cell lines
cell cycle profile (PMWK (ITKLO) cells): No cell cycle changes
cell cycle profile (VMM 39 (ITKHI) cells): increased the percentage of cells in the G0/G1 phase and decreased the percentage of cells in the S phase
cell cycle profile (RPMI 8322 (ITKHI) cells): increased the percentage of cells in the G0/G1 phase and decreased the percentage of cells in the S phase
decrease in migration [4]: about 50%
concentration required for smaller changes in migration [5]: ≥ 150 nM
effect on migration ([5]; 10-25 nM): do not decrease
concentration required for smaller changes in migration [6]: ≥ 150 nM
effect on migration ([6]; 10-25 nM): unaffected
concentration required for smaller changes in migration [7]: ≥ 150 nM
effect on migration ([7]; 10-25 nM): unaffected
